From US20260356860A1, “2-SUBSTITUTED 3,4A,5,7,8,8A-HEXAHYDRO-4H-THIOPYRANO[4,3-DJPYRIMIDIN-4-ONES FOR WOUND TREATMENT” (priority 2022, published 2026)

What was measured:
[1] = test system: HEK293 SuperTOPFlash reporter cells, Wnt promoter; test: Wnt inhibition in HEK293 SuperTOPFlash reporter cells, DMSO vs aqueous GO-HA (FIGS. 1-3); assay type: cell-based
Procedure: In order to determine the effect of the compounds of Formula (I) on Wnt inhibition, an invitro assay using HEK293 SuperTOPFlash reporter cells, with the Wnt promoter driving a luciferase reporter gene, were utilized. 40,000 HEK293 SuperTOPFlash reporter cells were seeded, per well, in a 48 well plate for 24 hours, prior to administration of serial dilutions of the compounds of Formula (I) to individual wells. Serial dilutions ranging from […] to 1 nM of compounds of Formula (I) were added with or without 50 ng/mL Wnt3α (Time Biosciences) and allowed to incubate with the reporter cells for 18 hours. Reporter cells with no treatment were used as negative control.

[2] = test system: Full-thickness, 3rd degree burn wounds; test: 3rd degree burn wound healing study (60-day); assay type: in vivo, Yucatan minipig; conditions: for burn wound healing rate versus saline control: about day 16 to day 30; for burn wound histology (H&E) versus saline and GO-HA: improved organized reticular collagen and rete ridge formation
Procedure: The test composition in the closed excisional wound and burn studies for compounds without GO-HA (no GO-HA added) was a mixture with an overall concentration of 0.20 to 0.25 mg/mL of the respective compound in serum formulation as follows: compound (4 mg), butylene glycol (0.80 mL), polysorbate 20 (0.40 mL), ultra pure water (18 mL), and hydroxypropyl cellulose (0.12 g).
The test composition in the closed excisional wound and burn studies for compounds with GO-HA (Compound+GO-HA) was a mixture with an overall concentration of 1.0 mg/mL of the respective compound and 0.5 mg/mL of GO-HA in serum formulation as follows: compound (18 mg), PEG 400 (0.8 mL), GO-HA (9 mg), ultra pure water (18 mL), and hydroxypropyl cellulose (0.12 g).
Full-thickness 60-day burn wound healing study. Full-thickness, 3rd degree burn wounds of 3×3 cm^2 size were created on the back of the Yucatan minipig (5 wounds on each side of the spine, 10 total per swine) by using a brass cylinder (circular cross-section, 3 cm diameter) that was preheated in an oven at 100° C. and applied to the dorsal skin with light pressure for 30 seconds. Debridement of the wounds occurred day 7 post-dose. Compounds were dosed topically three times a week (0.24 mL) for thirty days. At 30 day time-point, the wounds were photographed once a week and NO dosing of compounds conducted from day 31-60. On day 60 animals were sacrificed and tissue prepared for analysis.

[3] = test system: full thickness excisional wounds; test: Rete ridge formation (full thickness wound healing study); assay type: in vivo, Yucatan Miniature Swine; conditions: rete ridge/mm
Procedure: (§1) A 21-day full thickness open excisional wound healing study was conducted on Yucatan™ Miniature Swine (Sinclair BioResources, Auxvasse, Missouri, USA) to evaluate the efficacy of healing and local tissue reaction of compounds of Formula (I). Compounds and controls were topically administered on full thickness open excisional wounds once every other day (total 11 doses).
Additional tests were performed including elasticity (Table 12); max force (Table 13); tensile strength (strain) (Table 14); energy peak (Table 15); rete-ridge formation; and collagen organization (plane polarized light) (FIG. 24) of the healed wound sites, described as follows.
Improved rete ridge formation is described as epithelial extensions that project into the underlying connective tissue in both skin and mucous membrances—improved rete ridge formation is a sign of tissue regeneration rather than fibrosis/scarring (reduced rete ridge formation).

[4] = test system: full thickness open excisional wounds; test: Full thickness open excisional wound healing study; assay type: in vivo, Yucatan Miniature Swine; conditions: day 3 to day 22
Procedure: as §1
The negative control for this study was saline (0.9%). The tes compositions for these studies are described as follows.
The test composition in the full thickness open excisional wound studies for compounds without GO-HA (no GO-HA added) was a mixture with an overall concentration of 0.25 to 0.27 mg/mL of the respective compound in serum formulation as follows: compound (10 mg), butylene glycol (1.80 mL), polysorbate 20 (1.80 mL), phosphatidyl choline (0.44 g), ethanol (1.80 mL), ultra pure water (30 mL), and hydroxypropyl cellulose (0.285 g).
The test composition in the full thickness open excisional wounds studies for compounds with GO-HA (Compound+GO-HA) was a mixture with an overall concentration of 1.0 mg/mL of the respective compound and 1.0 mg/mL of GO-HA in serum formulation as follows: compound (35 mg), butylene glycol (1.8 mL), polysorbate 20 (1.8 mL), phosphotidyl choline (0.44 g), ethanol (1.8 mL), GO-HA (35 mg), ultra pure water (30 mL), and hydroxypropyl cellulose (0.285 g). […]

[5] = test system: 8 mm ear punch wound; test: Rabbit ear punch: rate of ear closure; assay type: in vivo; conditions: after day 4; phospholipid spray
Procedure: Compounds of Formula (I) were tested and compared to saline control in elastic cartilage regeneration tests. Rabbit ears were punched through and through with an 8 mm punch. 4 holes were punched in each ear of the specimen (four positions L1, L2, L3, and L4 in the left ear and four positions R5, R6, R7, and R8 in right ear). Saline was applied via a spray on the control specimen, Compound 8 was applied via a phospholipid spray on another specimen, and Compound 18 was applied via a phospholipid spray on yet another specimen. The phospholipid spray contained compound (45 mg), butylene glycol (2 mL), polysorbate 20 (2 mL), phosphotidyl choline (0.5 g), ethanol (2 mL), and ultra pure water (40 mL).
FIG. 4 provides photographs of the wounds after treatment with saline, compound 8, or compound 18 on Days 0 and 23. Ear punch area related to wound closure was measured at 2- to 3-day intervals from day 0 to day 39.

| SMILES | IC50 [1] [nM] | burn wound healing rate versus saline control [2] | burn wound histology (H&E) versus saline and GO-HA [2] | rete ridge formation compared to the saline control [3] | wound healing throughout the entire test [4] | rate of ear closure versus control [5] |
| --- | --- | --- | --- | --- | --- | --- |
| O=c1[nH]c(-c2ccc(B(O)O)cc2)nc2c1CSCC2 [Compound 1, (4-(4-oxo-3,5,7,8-tetrahydro-4H-thiopyrano[4,3-d]pyrimidin-2-yl)phenyl)boronic acid] | 2000 |  |  |  |  |  |
| O=c1[nH]c(-c2ccc(-c3ccc(Br)nc3)cc2)nc2c1CSCC2 [Compound 7, 2-(4-(6-bromopyridin-3-yl)phenyl)-3,5,7,8-tetrahydro-4H-thiopyrano [4,3-d]pyrimidin-4-one] | 5 to 10 | statistically significant improved burn wound healing rates | promoted regeneration of tissue (improved organized reticular collagen and rete ridge formation) and reduced scar formation | improved wound healing compared to the saline control (rete ridge/mm) | improved wound healing throughout the entire test |  |
| CC(C)(OCCO)c1ccc(-c2nc3c(c(=O)[nH]2)CSCC3)cc1 [Compound 8, 2-(4-(2-(2-hydroxyethoxy)propan-2-yl)phenyl)-3,5,7,8-tetrahydro-4H-thiopyrano[4,3-d]pyrimidin-4-one] | 5 to 10 | statistically significant improved burn wound healing rates | promoted regeneration of tissue (improved organized reticular collagen and rete ridge formation) and reduced scar formation | improved wound healing compared to the saline control (rete ridge/mm) | improved wound healing throughout the entire test | improved the rate of ear closure over the control |
| COC(=O)NCCOC(C)(C)c1ccc(-c2nc3c(c(=O)[nH]2)CSCC3)cc1 [Compound 18, methyl (2-((2-(4-(4-oxo-3,5,7,8-tetrahydro-4H-thiopyrano[4,3-d]pyrimidin-2-yl)phenyl)propan-2-yl)oxy)ethyl)carbamate] |  |  |  |  |  | improved the rate of ear closure over the control |
